Earlier results, collected in patent US20090169606A1, “Low Flexural Strength Transdermal Tobacco Alkaloid Patch” (Fertin Pharma, priority 2005, published 2009).

Details: pure nicotine placed on the skin of an ordinary human being

For `CN1CCCC1c1cccnc1` (stereo not shown) [nicotine], the lethal dose is given as 50 mg.
